# Experimental data taken from patent publication US10959433B2, “Use of cationic steroidal antimicrobials for sporicidal activity” (BRIGHAM YOUNG UNIVERSITY, priority 2017, dated 2021).
# Tests used:
# [1] = tested on: vegetative form of B. subtilis; experiment: Viability (CFU) assay, vegetative form; type: cell-based, Bacillus subtilis ATCC 6051; conditions: RT, incubation time 240 min
# Procedure: (§1) A viability assay of bacterial spores in the presence of a CSA compound was performed according to the protocol presented by Ghosh and Setlow. Ghosh, S. and P. Setlow, Isolation and characterization of superdormant spores of Bacillus species. J Bacteriol, 2009. 191(6): p. 1787-97. Spore suspensions in PBS were brought to […] and incubated with various concentrations of CSA-13. To evaluate the effect of treatment time on the killing properties of the antibiotic, incubation was performed for 15, 30, 60, 120 and 240 min, respectively. To investigate the effect of temperature on sporicidal properties, incubation at room temperature (RT) and at 70° C. was performed. After incubation, the plates were transferred to ice and suspensions were diluted 10- to 1000-fold in PBS. Then, 10 μL aliquots were spotted on LB agar plates for overnight culture at 37° C. and CFUs were determined. Cell survival, after exposure to the tested agent, was expressed as percent of control.
# FIG. 4 includes graphs showing decreased survival of CSA-13-treated B. subtilis spores. FIG. 4, panels A-C show decline in the survival of B. subtilis culture after incubation with various concentrations of CSA-13. FIG. 4, panels D-F show Level of metabolic activity observed in ceragenin (CSA)-treated spore samples exposed to appropriate environmental conditions when compared to untreated control. […]
# B. subtilis spores [2] = experiment: Viability (CFU) assay of bacterial spores; type: cell-based, Bacillus subtilis ATCC 6051
# Procedure: (§2) This example studied the ability of a CSA compound (e.g., CSA-13) to kill sporulated bacterial, namely Bacillus subtilis ATCC 6051 spores. To prepare Bacillus subtilis ATCC 6051 spores, bacteria were grown on LB (Luria-Bertani) agar plates without antibiotics at 37° C. for 72 h. Bacteria were harvested, re-suspended in ice-cold phosphate buffered saline (PBS) solution and purified by triple centrifugation (12 000×g, 10 min, 4° C.). The spore suspension was heat treated (75° C., 15 min) to remove remaining vegetative cells, cooled, stored in water at 4° C. and protected from light until analysis. […] Zhang, P., P. Setlow, and Y. Li, Characterization of single heat-activated Bacillus spores using laser tweezers Raman spectroscopy. Opt Express, 2009. 17(19): p. 16480-91. All spores used in this work were free of vegetative cells (>98%), as determined by staining cells using Schaeffer and Fulton Spore Stain Kit (Sigma-Aldrich, St Louis, Mo., USA). Additionally, to confirm the formation of spores during preparation, purified samples were investigated using transmission electron microscopy (TEM, Tecnai G2 X-TWIN, FEI, USA).
# as §1
# FIG. 4 includes graphs showing decreased survival of CSA-13-treated B. subtilis spores. FIG. 4, panels A-C show decline in the survival of B. subtilis culture after incubation with various concentrations of CSA-13. FIG. 4, panels D-F show Level of metabolic activity observed in ceragenin (CSA)-treated spore samples exposed to appropriate environmental conditions when compared to untreated control. Samples were incubated at RT (panels A, D for vegetative form and panels B, E for spore form, respectively) and at 70° C. (panels C, F) for 15 (white squares), 30 (grey circles), 60 (black circles), 120 (white triangles) and 240 (grey diamonds) minutes. […]
# [3] = tested on: vegetative cells of B. subtilis; experiment: MTT assay of metabolic activity, vegetative cells; type: cell-based, Bacillus subtilis; conditions: RT (FIG. 4, panel D)
# Procedure: (§3) As an additional confirmation of results, the presence of a metabolically active fraction of cells was investigated using MTT assay. After incubation of spores with various concentrations of CSA-13 in a non-growing medium (PBS), 20 μL of MTT solution (thiazolyl blue tetrazolium bromide, Sigma-Aldrich, St Louis, Mo., USA, 5 mg/mL) and 100 μL of LB medium broth were added. Incubation at 37° C. was continued for 8 h. Medium was removed, and 100 μL of dimethyl sulfoxide solution (DMSO) was added to dissolve the MTT precipitate. Cells were allowed to stand at room temperature (RT) for 10 min with shaking. Absorbance values were detected at a wavelength of 570 nm using a microplate spectrophotometer. Absorbance values obtained in control spores cultures (without a tested agent) were taken as 100%. As positive controls, 1 M HCl (for spore treatment at RT) and 70% ethanol (for spore treatment at 70° C.) were employed. The average of all the experiments was presented in comparison to the level of metabolic activity detected in non-treated B. subtilis suspension. Incubation of both vegetative cells and spores of B. subtilis was performed for 15, 30, 60, 120 and 240 min.
# B. subtilis spores [4] = experiment: MTT assay of metabolic activity, spores; type: cell-based, Bacillus subtilis; conditions: LB broth 37° C. 8 h after treatment at RT or 70° C. (FIG. 4, panels E, F)
# Procedure: as §3, with “Incubation of both vegetative cells and spores of B. subtilis was performed for 15, 30, 60, 120 and 240 min.” left out
# The results of viability testing largely correlate with data obtained in the MTT assay. […] The incubation of non-treated spores in LB broth at 37° C. results in reactivation of metabolic activity confirmed by increasing formazan reduction and subsequent rise in an absorbance value. […]
# B. subtilis spores [5] = experiment: Spore germination by optical density (OD600); type: cell-based, Bacillus subtilis; conditions: 10 to 100 μg/mL, 1 h at RT in PBS, then LB broth, OD600 for 60 min (FIG. 5, panel A)
# Procedure: To further assess germination processes in antibiotic-treated samples, a spectrophotometric method was employed. Isolated spores were incubated at RT for 1 h in PBS with concentrations of CSA-13 ranging from 10 to 100 μg/mL. Then 100 μL of LB broth was added, and optical densities at 600 nm (OD600) were monitored, using a microplate reader (Synergy H1, BioTek, VT, USA), for 60 min. FIG. 5 includes graphs showing inhibitory effect of CSA-13 on B. subtilis spore germination assessed by the measurement of optical density for spore suspension with increasing concentrations of the antibiotic (10 μg/mL—white squares; 20 μg/mL—white diamonds; 50 μg/mL—black triangles; 100 μg/mL—black diamonds), when compared with control (CT—grey circles) (panel A). Release of rhodamine 6G from external layers of B. subtilis spores after treatment with 20 μg/ml of CSA-13 (black square) and vancomycin (VAN; grey square) (panel B).
# [6] = tested on: external layers of B. subtilis spores; experiment: Release of rhodamine 6G from the surface of spores; type: cell-based, Bacillus subtilis
# Procedure: The release of rhodamine 6G absorbed on the surface of Bacillus spores was evaluated using the Maesaki method (Maesaki, S., et al., Rhodamine 6G efflux for the detection of CDR1-overexpressing azole-resistant Candida albicans strains. J Antimicrob Chemother, 1999. 44(1): p. 27-31) with minor modifications. To stain cells with rhodamine 6G, the dye was added to a final concentration of 10 μM for 10 min. Non-absorbed dye was removed by centrifugation for 2 min at 10 000×g. Next, stained cells were washed and CSA-13 at 20 μg/mL was added. After incubation for 10, 30, 60 and 120 min, supernatant was collected by centrifugation and absorption at 527 nm was measured. The total concentration of rhodamine 6G released from the surface of spores was calculated using a standard concentration curve. The level of antibiotic-induced release was presented as the difference between the concentration of rhodamine 6G released from treated spores and control samples.
# [7] = tested on: membrane of vegetative and spore form of B. subtilis; experiment: Affinity of FITC-labeled CSA-13 to cell membranes (fluorimetric); type: binding, Bacillus subtilis; conditions: FITC-labeled CSA-13, 20 μg/mL
# Procedure: To assess the affinity/binding of CSA-13 for the outer bacterial membrane, CSA-13 was labeled with fluorescein isothiocyanate (FITC) and added to the suspensions of vegetative cell and spores, to a final concentration of 20 μg/mL. […] To evaluate whether affinity of CSA-13 is influenced by the surface electrical properties of cells, zeta potentials of vegetative bacteria and spore suspensions were assessed using Zetasizer Nano ZS (Malvern Instruments, United Kingdom). Bacterial and spore cultures were brought to OD600˜0.1 in PBS buffer (pH=7). To evaluate the effect of the ceragenin on zeta potential value, CSA-13 was added at the concentration of 100 μg/mL to the spore suspension, incubated for 15 minutes and transferred to a cuvette. Measurements were conducted at 25° C.
# B. subtilis spores [8] = experiment: TEM of treated spores (morphology, membrane permeability); type: cell-based, Bacillus subtilis; conditions: 50 μg/mL and 200 μg/mL, 1 hour, RT and 70° C. (FIG. 3, panels C-F)
# Procedure: as §2
# To visualize alterations in morphology and membrane permeability of treated spores, a suspension of spores (OD600˜0.5) in distilled water was treated with CSA-13 at concentrations of 50 μg/mL and 200 μg/mL and incubated for 1 hour at RT and 70° C. […]
# B. subtilis spores [9] = experiment: Confocal Raman spectroscopy of single spores (CaDPA content); type: cell-based, Bacillus subtilis; conditions: 50 μg/mL and 200 μg/mL
# Procedure: For Raman spectroscopy analyses, spores of B. subtilis were suspended in 100 μL of distilled water and treated with CSA-13 (50 μg/mL and 200 μg/mL) for 1 hour at RT and 70° C. Samples were transferred to polished calcium fluoride (CaF2) optical windows (Crystran, United Kingdom) and dried at 60° C. Raman spectra were recorded using a Renishaw InVia Raman spectrometer equipped with an optical confocal microscope, an air-cooled laser emitting at 532 nm, and an CCD detector thermoelectrically cooled to −70° C. A dry Leica N PLAN EPI (100×, NA 0.85) objective was used. The power of the laser at the sample position was ca. 1.5 mW. A sum of 20 scans with integration time of 20 seconds and a resolution of 0.5 cm^−1 was collected. The spectrometer was calibrated using the Raman scattering line generated by an internal silicon plate. A laser spot (diameter of ca. 760 nm) was focused on a single spore and then the measurement was performed. All spectra were smoothed and baseline corrected. Results from one representative experiment are provided.
# FIGS. 7 and 8 show Raman spectra collected from B. subtilis spores incubated at RT and at 70° C., respectively, with corresponding confocal microscopy images. Panels A1 and A2—control sample, panels B1 and B2—50 μg/mL of CSA-13, panels C1 and C2—200 μg/mL of CSA-13. Asterisks denote CaDPA bands well separated from bands of spore biocomponents. […]
compound,measurement,setting,value
CCCCCCCCNCCC[C@@H](C)[C@H]1CC[C@H]2[C@@H]3[C@H](OCCCN)C[C@@H]4C[C@H](OCCCN)CC[C@]4(C)[C@H]3C[C@H](OCCCN)[C@]12C [CSA-13],concentration at which all vegetative cells were killed,[1],15 µg/mL
same,effect of elevated temperature on sporicidal activity,B. subtilis spores [2]; 70° C. versus room temperature,elevated temperature significantly intensifies the activity
same,concentration killing bacterial spores,"B. subtilis spores [2]; 70° C., incubation 120 and 240 minutes",5 µg/mL
same,concentration sufficient to inhibit the growth of spores,"B. subtilis spores [2]; 70° C., incubation 15 min (FIG. 4, panel C)",20 µg/mL
same,concentration giving total inhibition of spore growth potential,"B. subtilis spores [2]; RT, regardless of incubation time (15-240 min) (FIG. 4, panel B)",100 µg/mL
same,concentration at which vegetative cells showed no detectable metabolism,[3],20 µg/mL
same,metabolic activity of treated spores after exposure to favorable conditions,B. subtilis spores [4],only a small fraction of spores was able to resume proper metabolic activity
same,effect on spore germination (OD600),B. subtilis spores [5],strong interference in the germination
same,rhodamine 6G release compared with vancomycin,[6]; 20 μg/mL of each,significantly higher than that of vancomycin
same,release of rhodamine 6G from spores,"[6]; 20 μg/mL, 10-120 min (FIG. 5, panel B)",resulted in the release of dye
same,affinity for the external layers of spores,[7],high affinity
same,affinity for spores versus vegetative form,"[7]; recorded 15 min (FIG. 6, panel A)",greater affinity for the spores than for the vegetative form of bacteria
same,change of spore structure in TEM micrographs,B. subtilis spores [8],disruption of spore membrane architecture
same,"percentage of CaDPA negative spores, 70° C. versus room temperature",B. subtilis spores [9]; 1 hour (FIG. 8),greater compared to sample treated at room temperature
same,number of CaDPA positive spores after treatment,"B. subtilis spores [9]; 1 hour, versus untreated",significant reduction of the number of CaDPA positive cells
